SMILES strings stand for the structures.

The nature of this series: gradient 5% acetonitrile 3 min, to 50% in 2 min, to 85% in 15 min, held 3 min, 100 µL/min. The following applies: column: Zorbax Extend-C18 2.1 x 50 mm; eluents: water / acetonitrile, 0.1% formic acid. In short, it runs like this: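 Retention time was recorded from adduct peaks, which were picked computationally and each inspected manually. Pure standards ran in mixtures of ~100 molecules on HPLC coupled to a quadrupole time-of-flight mass spectrometer, in positive and negative ionization mode, through a Zorbax Extend-C18 column (2.1 × 50 mm, 1.8 μm) at 100 μL/min. Eluents were water and acetonitrile, each with 0.1% formic acid.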
Compound `Cc1ccc(NC(=O)Cn2nc3c(N4CCN(c5ccccc5C)CC4)nccn3c2=O)cc1` returned an RP-LC retention time of 1080 s. To `O=C(NCCC1=CCCCC1)c1ccc(CN2CC(=O)N3CCCCC3C2=O)cc1` (centres undefined) belongs 680 s. For `CCOc1ccc(C2=NC3(CCN(C(C)C)CC3)NC(c3cc(Br)ccc3O)C2)cc1` (centres undefined) the value was 654 s.

Compound `O=C(Nc1nc2ccccc2[nH]1)C1CCN(c2ccc(-c3cccs3)nn2)CC1` had an RP-LC retention time of 591 s.

Compound `c1ccc(CCCN2CCN(CCOC(c3ccccc3)c3ccccc3)CC2)cc1` registered an RP-LC retention time of 874 s. To `COc1ccc2c(c1)-c1nc(NC(=O)c3ccc(F)cc3)sc1CC2` belongs 1140 s. Compound `CCn1cnc(S(=O)(=O)N2CCC(C(=O)NCCc3ccccc3)CC2)c1` showed an RP-LC retention time of 697 s.

On to `O=C(Nc1ccc(F)cc1F)N1CCCC(Cn2c(C3CC3)nc3cccnc32)C1` (centres undefined), for which the RP-LC retention time stood at 668 s. To `COc1ccc(OC)c(NC(=O)NC(C(=O)N2CCc3ccccc32)C(C)C)c1` (centres undefined) belongs 984 s. On to `CN1CCN(C(=O)C2CCCN(c3ncnc4c3nc3n4CCCCC3)C2)CC1` (centres undefined), for which the RP-LC retention time was found to be 570 s. To `Cc1cc(C)c(CNC(=O)c2ccc3c(c2)CC(=O)N3C)c(C)c1` belongs 830 s; to `Cc1ccc(-n2c(=O)c3sccc3n(Cc3nc(-c4cccc(Br)c4)no3)c2=O)cc1`, 1110 s; to `Cc1nnc(-c2c(S(=O)(=O)NC3CCN(Cc4ccccc4)CC3)c(C)n(C)c2C)o1`, 602 s. For `Cc1cc(C(=O)NCc2ccc(N(C)C)cc2)c2c(=O)n(C)c(=O)n(C)c2n1` the value was 578 s. Compound `Cc1ccc(C)c(Nc2c(-c3cc(Br)ccc3O)nc3ncccn23)c1` had an RP-LC retention time of 1100 s. For `Cc1[nH]nc(-c2cc(S(=O)(=O)NCCc3ccc(S(N)(=O)=O)cc3)c(C)s2)c1C` the value was 699 s. To `Cc1ccccc1NC(=O)Nc1ccc2c(c1)CCN2S(=O)(=O)c1ccccc1` belongs 969 s; to `CNC(=O)C1CCCN(C(=O)Nc2ccc(NC(=O)Nc3ccc(OC)cc3)cc2)C1` (centres undefined), 633 s; to `CCC/C(C)=C/c1ccc(CC)cn1`, 708 s. For `O=C(Cc1nnc(-c2ccc3ncccc3c2)o1)NCCC1=CCCCC1` the value was 759 s. For `CN(CCc1noc(-c2ccc(C(=O)N3CCCC3)cc2)n1)C(=O)COc1ccc(Cl)cc1`, the RP-LC retention time stood at 808 s. To `CS(=O)(=O)NCC1CCN(C(=O)c2ccccc2F)CC1` belongs 608 s; to `CCN1C(=O)CC[C@]2(CNC(=O)c3ccc(OC)nc3)CCC[C@@H]12`, 671 s; to `O=C(Cc1ccc(NC(=O)CCS(=O)(=O)c2ccccc2)cc1)NCc1cccs1`, 701 s.

Regarding `O=C(Cn1nc2n(c1=O)CCCC2)NCc1ccccc1Cl`, the RP-LC retention time is 669 s. For `COc1ccc(CNS(=O)(=O)c2cc3n(c2)CCCNC3=O)cc1` the value was 641 s; for `O=c1cc(N2CCOCC2)oc2c1ccc1ccccc12`, 882 s; for `COc1ccc(S(=O)(=O)N2CC3CN(C(=O)CC(C)C)CC(C2)O3)cc1`, 759 s. To `Cc1cc(C)c(CN2CCn3c(nn(C)c3=O)C2)c(C)c1` belongs 868 s; to `COc1ccc(CNC2=NCCNC23CCN(S(=O)(=O)c2c(C)cc(C)cc2C)CC3)cc1`, 834 s.

Compound `CN(CCNC(=O)c1ncoc1-c1ccco1)Cc1ccccc1` registered an RP-LC retention time of 630 s. For `COC(=O)c1c(C)[nH]c(C(=O)N2CCCC(C(=O)N3CCN(c4cccc(Cl)c4)CC3)C2)c1C` (centres undefined) the value was 952 s; for `Cc1noc(C)c1-c1ccc(S(=O)(=O)NCC2CCCO2)cc1` (centres undefined), 767 s.

In turn, `O=C(Nc1cccc(OCc2nnc(-c3ccccc3)o2)c1)c1ccoc1` had an RP-LC retention time of 868 s. Consider `Cc1nc(-c2csc(S(=O)(=O)N3CCCC(C(=O)NCc4ccc5c(c4)OCO5)C3)c2)no1` (centres undefined), for which the RP-LC retention time came out at 880 s. To `Cc1ccc(-c2ccc(N3CCCC(C(=O)NCC(C)C)C3)nn2)cc1C` (centres undefined) belongs 737 s; to `CCn1ncc(NC(=O)c2cccc(F)c2)c(N2CCOCC2)c1=O`, 788 s; to `Cc1ccc(S(=O)(=O)NCCC(=O)N2CCCC2c2nc(-c3ccc(Cl)cc3)no2)cc1` (centres undefined), 1040 s. The compound `CCc1nn2c(CNC(=O)Cc3ccc(OC)cc3Cl)c(C)nc2s1` registered an RP-LC retention time of 670 s. To `CCOC(=O)c1cc[nH]c1CC(=O)NC` belongs 672 s; to `O=C(Cn1nc2n(c1=O)CCCCC2)Nc1ccc2c(c1)OCO2`, 655 s. For `Cc1cccc(-c2noc(Cn3c(=O)n(-c4ccc(Cl)cc4)c(=O)c4sccc43)n2)c1` the value was 1100 s. To `O=C(CCn1ccc2cc(S(=O)(=O)N3CCCCC3)ccc21)N1CCN(c2ccccn2)CC1` belongs 680 s; to `COc1cccc(S(=O)(=O)N2C[C@@H]3C[C@H]2C[C@@H]3NC(=O)c2ccccc2)c1`, 840 s. Turning to `CSc1ccc(-c2nc3ccc(C)cn3c2Nc2ccc(C)cc2)cc1`, the RP-LC retention time was determined as 819 s. To `Cc1ccccc1-c1noc(C2CCCN2S(=O)(=O)c2ccc(Cl)cc2C)n1` (centres undefined) belongs 1290 s; to `COc1ccc(-n2c(CN3CCN(C(=O)NC(C)(C)C)CC3)nc3cccnc32)cc1`, 640 s; to `CCN1C(=O)c2c(C(=O)NCc3cccc(Cl)c3)ncn2CC1(C)C(=O)NC1CCCC1` (centres undefined), 804 s. To `FC(F)(F)c1nc2cc3c(cc2n1Cc1ccc(Br)cc1)OCCO3` belongs 1080 s; to `Cc1noc(C2CN(C(=O)Nc3c(C)cccc3C)CC23CCOCC3)n1` (centres undefined), 693 s.

`O=C(NC1CC1)c1ccc(OCC2CCN(C(=O)Cc3cccs3)CC2)cc1` registered an RP-LC retention time of 780 s. On to `Cc1ccc2oc(C(=O)Nc3nccs3)c(C)c2c1`, for which the RP-LC retention time turned out to be 942 s. The compound `Cc1cc(C)c(S(=O)(=O)NCc2c(-c3ccccc3)nc3sc(C)nn23)c(C)c1` showed an RP-LC retention time of 1020 s. For `COc1ccc(OC)c(Nc2c(-c3ccc(SC)cc3)nc3cnccn23)c1` the value was 923 s. To `O=C1NCCCn2cc(S(=O)(=O)NCc3ccc4c(c3)OCO4)cc21` belongs 640 s; to `CCCNC(=O)C1CCCN(c2ccc(SCC(=O)Nc3ccccc3OCC)nn2)C1` (centres undefined), 736 s. To `CCC1Oc2ccc(S(=O)(=O)N3CCC(C(=O)Nc4ccc(C)c(C)c4)CC3)cc2NC1=O` (centres undefined) belongs 930 s; to `O=C(c1ccccc1)N1C[C@@H]2C[C@H]1C[C@@H]2NS(=O)(=O)c1cccnc1`, 630 s; to `COc1cc2c(cc1OC)C1C(C(=O)NCCCN3CCN(C)CC3)c3ccccc3C(=O)N1CC2` (centres undefined), 547 s. On to `CC(C)C(=O)N1CC(c2noc(C3CCCN3CC3CC3)n2)C1` (centres undefined), for which the RP-LC retention time is 579 s.

As to `Cc1ccc(CNC(=O)c2ccc3ncnc(N4CCCC4)c3c2)cc1C`, the RP-LC retention time is 684 s. For `Cc1noc(-c2cc(=O)n(CC(=O)NC3CCCC3)c3ccccc23)n1` the value was 782 s. For `CCCS(=O)(=O)N1CCC2(CC1)CN(c1ccccc1)C2=O` the value was 812 s.

For the compound `CC(C)CCN(CC(=O)N1CCNCC1)C(=O)c1ccc(Br)cc1`, the RP-LC retention time amounted to 657 s.

In the case of `CCCOc1ccccc1Nc1nc(C(=O)OCC)nc2ccccc12`, the RP-LC retention time amounted to 1040 s. With `CCc1noc(NC(C)=O)c1-c1ccc(OC)c(S(=O)(=O)NCc2ccccc2OC)c1`, the RP-LC retention time stood at 791 s. For `O=C(CN1C(=O)NC(c2ccc(Cl)cc2)C2=C1COC2=O)Nc1ccc(Br)cc1F` (centres undefined) the value was 877 s; for `CCOc1ccc(-c2[nH]ncc2CNS(=O)(=O)c2cccc(C(F)(F)F)c2)cc1`, 902 s. Turning to `Cc1ccc(F)c2c(=O)c3c([nH]c12)CCN(CC(=O)Nc1ccc2c(c1)OCO2)C3`, the RP-LC retention time amounted to 615 s. For `CCc1nn(CC)c(=O)c2cc(S(=O)(=O)NCc3ccc(F)c(Cl)c3)cn12` the value was 1010 s; for `Cc1c2c(nn1-c1ccc(SCc3ccccc3Cl)nn1)CCC2`, 1380 s; for `COC(=O)c1sc(-c2ccccc2)cc1NC(=O)c1ccc([N+](=O)[O-])s1`, 1370 s. To `Cc1cccc(S(=O)(=O)N2CCc3nc(-c4ccc(Cl)cc4)ncc3C2)c1` belongs 1210 s; to `COC1CN(c2cccc(F)c2)C12CCN(Cc1ccc(F)c(F)c1)CC2` (centres undefined), 785 s. The compound `CCCNC(=O)C1CCN(c2ccc(SCC(=O)Nc3ccccc3C(=O)OCC)nn2)CC1` yielded an RP-LC retention time of 715 s.

With `COCCC(=O)N1CCC(c2noc(C3CC3)n2)C1` (centres undefined), the RP-LC retention time amounted to 627 s. For `CC1CN(c2nc(Nc3ccc(Cl)cc3)c3cnn(C)c3n2)CC(C)O1` (centres undefined) the value was 1040 s. Take `COc1ccc2c(ccn2CC(=O)N[C@@H](CC(C)C)C(=O)O)c1`: the RP-LC retention time came to 756 s.

Compound `COc1ccc(S(=O)(=O)N2C[C@@H](F)C[C@H]2C(=O)N2CCc3ccccc3C2)cc1` had an RP-LC retention time of 877 s.
